A short description of the experiment: Phase 1a trial of GLP-1/FDKP inhalation powder: insulin, glucose, gastric emptying. It counts as in vivo, human.

Turning to `CC[C@H](C)[C@H](NC(=O)[C@H](Cc1ccccc1)NC(=O)[C@H](CCC(=O)O)NC(=O)[C@H](CCCCN)NC(=O)[C@H](C)NC(=O)[C@H](C)NC(=O)[C@H](CCC(N)=O)NC(=O)CNC(=O)[C@H](CCC(=O)O)NC(=O)[C@H](CC(C)C)NC(=O)[C@H](Cc1ccc(O)cc1)NC(=O)[C@H](CO)NC(=O)[C@H](CO)NC(=O)[C@@H](NC(=O)[C@H](CC(=O)O)NC(=O)[C@H](CO)NC(=O)[C@@H](NC(=O)[C@H](Cc1ccccc1)NC(=O)[C@@H](NC(=O)CNC(=O)[C@H](CCC(=O)O)NC(=O)[C@H](C)NC(=O)[C@@H](N)Cc1c[nH]cn1)[C@@H](C)O)[C@@H](C)O)C(C)C)C(=O)N[C@@H](C)C(=O)N[C@@H](Cc1c[nH]c2ccccc12)C(=O)N[C@@H](CC(C)C)C(=O)N[C@H](C(=O)N[C@@H](CCCCN)C(=O)NCC(=O)N[C@@H](CCCNC(=N)N)C(N)=O)C(C)C` [GLP-1, glucagon-like peptide 1], under “1.5 mg GLP-1 inhaled, 20 min after dosing, from 85 mg/dL”, the “mean fasting plasma glucose” value is reported as 70 mg/dL. Further, the “inhibition of gastric emptying” value (pulmonary administration, dry powder, data not shown) is listed as “lack inhibition of gastric emptying”.

The values are drawn from patent US8642548B2 (Mannkind Corporation, priority 2009, dated 2014).
